The test system of one series is U87 cells. The experiment in a line: Western blotting of CFH, FHL-1 and IDO in U87 cell lysates and supernatants. Conditions: serum-free medium 24 to 48 hours. In kind it is cell-based, human. The source says:
FIGS. 15A to 15H. Indoleamine 2,3 dioxygenase 1 (IDO) enhances the expression of both complement factor H (CFH) isoforms in human glioblastoma (GBM). (15A) Schematic representation of CFH transcript variants reflecting the full-length (CFH) and truncated (FHL-1) sequences. Pearson's correlation analysis of (15B) IDO and (15C) CD3E with CFH and FHL-1 using the TCGA GBM RNA-Seq dataset. (15D) Left panel: Western blot analysis of surgically-resected tumor tissue samples from both newly diagnosed GBM patients and recurrent GBM patients. Right panel: Protein expression of full-length and truncated CFH variants and IDO in IFNγ-stimulated U87 cells. Cells were treated with IFNγ and cultured in serum-free medium for 24 to 48 hours. Both cell lysates and cell culture supernatants were collected. The supernatants were concentrated with ultrafiltration and analyzed by Western blot along with cell lysate samples. One representative result is shown that reflects 4 experimental repeats. […] The U87 cells were stimulated with 100 ng/ml human IFNγ and RNA lysates were extracted followed by quantitative RT-PCR analysis (n=4). […] (15H) Comparison of IDO, CFH, and FHL-1 mRNA expression induction in Unmod. and IDOKO U87 cells using quantified RT-PCR (n=3 per group that reflects 1 representative experiment after 2 repeats). ***, P<0.001; ND: not detectable. […]
In general terms: Immunoblotting shows a protein as a band on a membrane.

Series [1] deals with U87, PDX12, PDX39, and PDX43. Put plainly: In vitro expression analysis of human CFH mRNA in different GBM cells with or without human IFNγ. In kind it is cell-based. The source says:
FIGS. 14A to 14I. Indoleamine 2,3 dioxygenase 1 (IDO) and complement factor H (CFH) mRNA levels positively correlate with T cell infiltration in patient-resected glioblastoma (GBM). (14A) mRNA expression levels for IDO and CFH in grade II (green; n=226), grade III (blue; n=249), and grade IV (GBM; red; n=172) glioma of the RNA Hi-Seq. Illumina dataset as analyzed in the cancer genome atlas (TCGA). Horizontal lines in the scatter plots represents mean±SEM. (14B) Pearson's correlation analysis for IDO and CFH mRNA levels within GBM and all-grade glioma. […] CFH mRNA levels were analyzed in U87 GBM cells co-cultured with either naïve or activated T cells or conditioned medium from activated T cells in the presence or absence of IFNγ-neutralizing antibodies. […]
Total RNA was extracted from freshly dissected tissue samples and cultured cells using the Trizol Reagent and PureLink RNA Mini Kit (Thermo Fisher Scientific), respectively. […] Quantitative real-time PCR was performed on a CFX96 Touch Real-Time PCR Detection System using the default program setting (Bio-Rad). […] The relative quantitation of gene expression was calculated using the 2-AACT method (29) with normalization of the target threshold cycle (CT) values to the internal housekeeping gene (GAPDH).

The next series relates to U87 GBM cells. Put plainly: Real-time RT-PCR of CFH/FHL-1/IDO expression in cultured U87 GBM cells. In kind it is cell-based, human. As to the method: (§1) FIGS. 13A to 13E. Indoleamine 2,3 dioxygenase 1 (IDO) non-metabolically increases complement factor H (CFH) levels in human glioblastoma (GBM). (13A) Flow chart for the microarray experimental design, data analysis, as well as validation of results. Real-time RT-PCR confirmation of IDO regulatory effects on CFH expression in cultured (13B) U87 or (13C) PDX43 GBM. Cells were exposed to a variety of conditions including transfection with IDO specific siRNA (20 nM) or scrambled control siRNA for 16 hours, treatment with or without 100 ng/mL human interferon-gamma (IFN-γ), treatment with or without the IDO enzyme inhibitor, BGB-5777 (1 uM), or IFNγ plus BGB-5777 for 24 hours. Quantitative RT-PCR was performed (n=3 reflecting one representative experiment from 4 experimental repeats). (13D) Quantitative RT-PCR analysis of IDO and CFH mRNA expression on IFNγ-stimulated U87 cells treated with CFH siRNA or scrambled control siRNA. Same experimental conditions as in [13B] (n=3/group reflecting one representative experiment from 3 experimental repeats). (13E) mRNA expression levels for human IDO, CFH, and CD3 were quantified and compared among intracranial PDX43 and patient-resected newly-diagnosed or recurrent intracranial human GBM (n=4-9/group). Intracranially-engrafted (ic.) PDX43 was isolated from humanized mice with or without treatment of CD4′ and CD8^+ T cell depleting antibodies between 14-21 days post-intracranial injection. ***, P<0.001; ND: not detectable, ns: not significant. All bar graphs represent mean±SEM.
FIGS. 15A to 15H. Indoleamine 2,3 dioxygenase 1 (IDO) enhances the expression of both complement factor H (CFH) isoforms in human glioblastoma (GBM). (15A) Schematic representation of CFH transcript variants reflecting the full-length (CFH) and truncated (FHL-1) sequences. Pearson's correlation analysis of (15B) IDO and (15C) CD3E with CFH and FHL-1 using the TCGA GBM RNA-Seq dataset. (15D) Left panel: Western blot analysis of surgically-resected tumor tissue samples from both newly diagnosed GBM patients and recurrent GBM patients. Right panel: Protein expression of full-length and truncated CFH variants and IDO in IFNγ-stimulated U87 cells. Cells were treated with IFNγ and cultured in serum-free medium for 24 to 48 hours. Both cell lysates and cell culture supernatants were collected. The supernatants were concentrated with ultrafiltration and analyzed by Western blot along with cell lysate samples. One representative result is shown that reflects 4 experimental repeats. (15E) Time course analysis of IDO, CFH, FHL-1 mRNA expression after treatment with IFNγ in U87 (top row) and PDX43 (bottom row) GBM cells. The U87 cells were stimulated with 100 ng/ml human IFNγ and RNA lysates were extracted followed by quantitative RT-PCR analysis (n=4). (15F) Western blot of cell lysates and supernatants collected from the same experimental design as in top panel. Data from one representative experiment from 2 experiments are shown. (15G) Top panel: Western blot showing IDO protein levels in unmodified (Unmod.) as well as in CRISPR-Cas9 IDO-deleted (IDOKO) U87 cells. Unmod. U87 cells and IDOKO U87 cells were stimulated with 100 ng/mL human IFNγ for 24 hours. Protein lysates were collected from both untreated and IFNγ treated cells followed by Western blotting analysis; Lower panel: HPLC measurement of kynurenine (Kyn) and tryptophan (Trp) in Unmod. U87 and IDOKO U87 cells. (15H) Comparison of IDO, CFH, and FHL-1 mRNA expression induction in Unmod. and IDOKO U87 cells using quantified RT-PCR (n=3 per group that reflects 1 representative experiment after 2 repeats). ***, P<0.001; ND: not detectable. All bar graphs represent mean±SEM.
The microarray analysis was carried out at the Northwestern University NUSeq Core Facility using the human transcriptome analysis system, Clariom™ D Assay (Thermo Fisher Scientific). Briefly, 1×10^5 cells per well of U87 cells or IDO-OE U87 cells were seeded on 12-well plate. […]
In general terms: Quantitative PCR measures a nucleic acid by following its amplification.

A further series deals with PDX43 GBM cells. Put plainly: Real-time RT-PCR of CFH/FHL-1/IDO expression in cultured PDX43 GBM cells. In kind it is cell-based, human. Conditions: IFNγ time course. How it is done:
as §1, with “Same experimental conditions as in [13B] (n=3/group reflecting one representative experiment from 3 experimental repeats).” left out, “Intracranially-engrafted (ic.) PDX43 was isolated from humanized mice with or without treatment of CD4′ and CD8^+ T cell depleting antibodies between 14-21 days post-intracranial injection. ***, P<0.001; ND: not detectable, ns: not significant. All bar graphs represent mean±SEM.” left out
FIGS. 15A to 15H. […] The supernatants were concentrated with ultrafiltration and analyzed by Western blot along with cell lysate samples. […] The U87 cells were stimulated with 100 ng/ml human IFNγ and RNA lysates were extracted followed by quantitative RT-PCR analysis (n=4). […]

In the case of “IFNγ: human recombinant interferon-gamma (Shenandoah Biotechnology), T cell effector cytokine”, in the series on U87 cells, the “CFH and FHL-1 protein expression in cell culture supernatants (Western blot)” value is reported as “higher”. Besides, in series [1], the “Effect on CFH mRNA expression in human GBM cells” value is recorded as “increased CFH expression”. Also, the “Earliest time IDO mRNA expression is detectable after treatment” value with U87 GBM cells (100 ng/ml human IFNγ time course) came out at 4 h. Moreover, the “IDO, CFH and FHL-1 mRNA expression induction” value is “no such increase” in the series with U87 GBM cells (CRISPR-Cas9 IDO-deleted (IDOKO) U87 cells); “induced and upregulated” in the series on U87 GBM cells (unmodified U87 cells, 100 ng/mL). The “Effect on CFH expression (quantitative RT-PCR)” value in the series on U87 GBM cells (U87 cells, 100 ng/mL, 24 hours) was “increase of CFH expression”. The “Earliest time full-length and truncated CFH variants increased after treatment” value turned out to be 12 h in the series with U87 GBM cells (U87 cells, 100 ng/ml human IFNγ time course) and 12 h in the series on PDX43 GBM cells.
For the molecule “IDO-specific siRNA: human IDO-specific siRNA duplex (GE Health Dharmacon), SEQ ID NO:174 and 175 (chain 1 GCUUAUGACGCCUGUGUGAUU; chain 2 UCACACAGGCGUCAUAAGCUU; listed as RNA, chemistry not given here; listed as Homo sapiens)”, the “Effect on CFH expression (quantitative RT-PCR)” value with U87 GBM cells (U87 cells, siRNA 20 nM, 16 hours) was “decreased expression of CFH”.

B1: Complement Factor I (FI) (protein)
chain: KVTYTSQEDLVEKKCLAKKYTHLSCDKVFCQPWQRCIEGTCVCKLPYQCPKNGTAVCATNRRSFPTYCQQKSLECLHPGTKFLNNGTCTAEGKFSVSLKHGNTDSEGIVEVKLVDQDKTMFICKSSWSMREANVACLDLGFQQGADTQRRFKLSDLSINSTECLHVHCRGLETSLAECTFTKRRTMGYQDFADVVCYTQKADSPMDDFFQCVNGKYISQMKACDGINDCGDQSDELCCKACQGKGFHCKSGVCIPSQYQCNGEVDCITGEDEVGCAGFASVTQEETEILTADMDAERRRIKSLLPKLSCGVKNRMHIRRKRIVGGKRAQLGDLPWQVAIKDASGITCGGIYIGGCWILTAAHCLRASKTHRYQIWTTVVDWIHPDLKRIVIEYVDRIIFHENYNAGTYQNDIALIEMKKDGNKKDCELPRSIPACVPWSPYLFQPNDTCIVSGWGREKDNERVFSLQWGEVKLISNCSKFYGNRFYEKEMECAGTYDGSIDACKGDSGGPLVCMDANNVTYVWGVVSWGENCGKPEFPGVYTKVANYFDWISYHVGRPFISQYNV
Turning to B1, the “C3b breakdown in vitro (C3b incubated with FI and a fragment of cofactor CR1; time course followed by gel electrophoresis and GluC/SRM-MS)” value with C3b was “the formation of C3b fragments iC3b, C3f and C3c, and loss of intact C3b can be clearly detected over time”.

Source of the values: patent US20230384322A1, “COMPLEMENTOME ASSAY” (Complement Therapeutics Limited, priority 2020, published 2023).
